{
  "source": "paper PMC5382271",
  "about": "“The conserved protein Seb1 drives transcription termination by binding RNA polymerase II and nascent RNA” (Nature Communications, 2017)",
  "parameters_in_all_cases": "species or system S. pombe",
  "key": {"[1]": {"system": "Seb1 SUMO-RRM388-540 F487A", "experiment": "FA, SUMO-RRM F487A binding to RNA", "conditions": "SUMO-RRM388-540 F487A vs WT (Fig. 3e)", "protocol": "(§1) Recombinant WT and mutated RRM388−540 of Seb1 with an N-terminal His6-SUMO tag were expressed from modified pOPINS3C expression vector[69] in pLysS E. coli strain. For FA assays, protein eluted from NiNTA was further purified on a HiLoad 16/60 Superdex 200 prep grade column (GE Healthcare) using an ÄKTA purifier (GE Healthcare) in 50 mM Tris pH 8.0 and 200 mM NaCl, and fractions containing the Seb1-RRM388−540 concentrated to ∼5 mg ml^−1. For crystallization and SAXS, the NiNTA eluted fractions were buffer exchanged into 50 mM Tris pH 7.5, 300 mM NaCl and 500 mM NDSB-201 using a PD-10 column (GE Healthcare) and cleaved with 3C protease (Sigma-Aldrich) at room temperature overnight. […]\n(§2) For Seb1-CID1–152, binding to 75 nM of two-repeat CTD peptides containing an N-terminal 5′-fluorescein amidite (FAM)-tag (Peptides&elephants, Potsdam, Germany) was determined in 25 mM HEPES pH 7.3, 200 mM NaCl and 1 mM EDTA. For RRM388–540, binding was determined to 40 nM FAM-AUUAGUAAAA RNA (Eurofins) in 25 mM Tris-HCl pH 8.0, 100 mM NaCl, 2 mM MgCl2, 1 mM DTT, 16.7% (v/v) glycerol, 0.1% IGEPAL, 0.1 mg ml^−1 tRNA and 2.5% (v/v) RNasin (Promega). Excitation of the ligand was performed with linearly polarized light at 485 nm and emission was measured at 520 nm in parallel and perpendicular planes to the emission plane at 25 °C using a FLUOstar-Omega microplate reader (BMG-Labtech). […]"}, "[2]": {"system": "Seb1 SUMO-RRM388-540 R472E", "experiment": "FA, SUMO-RRM R472E binding to RNA", "conditions": "SUMO-RRM388-540 R472E vs WT (Fig. 3e)", "protocol": "as §1, §2"}, "[3]": {"system": "Seb1 SUMO-RRM388-540 F445A", "experiment": "FA, SUMO-RRM F445A binding to RNA", "conditions": "for effect on RNA binding, F445A: FA, SUMO-RRM388-540 F445A vs WT (Fig. 3e)", "protocol": "Recombinant WT and mutated RRM388−540 of Seb1 with an N-terminal His6-SUMO tag were expressed from modified pOPINS3C expression vector[69] in pLysS E. coli strain. For FA assays, protein eluted from NiNTA was further purified on a HiLoad 16/60 Superdex 200 prep grade column (GE Healthcare) using an ÄKTA purifier (GE Healthcare) in 50 mM Tris pH 8.0 and 200 mM NaCl, and fractions containing the Seb1-RRM388−540 concentrated to ∼5 mg ml^−1. For crystallization and SAXS, the NiNTA eluted fractions were buffer exchanged into 50 mM Tris pH 7.5, 300 mM NaCl and 500 mM NDSB-201 using a PD-10 column (GE Healthcare) and cleaved with 3C protease (Sigma-Aldrich) at room temperature overnight. His6-SUMO tag was removed using NiNTA beads and the cleaved RRM388−540 was further purified on a Superdex 75 10/100 GL column (GE Healthcare) in 20 mM HEPES pH 7.3, 150 mM NaCl and 500 mM NDSB-201. For crystallization trials, the eluted protein was concentrated to ∼8.7 mg ml^−1, for SAXS to ∼5 mg ml^−1.\nFor Seb1-CID1–152, binding to 75 nM of two-repeat CTD peptides containing an N-terminal 5′-fluorescein amidite (FAM)-tag (Peptides&elephants, Potsdam, Germany) was determined in 25 mM HEPES pH 7.3, 200 mM NaCl and 1 mM EDTA. For RRM388–540, binding was determined to 40 nM FAM-AUUAGUAAAA RNA (Eurofins) in 25 mM Tris-HCl pH 8.0, 100 mM NaCl, 2 mM MgCl2, 1 mM DTT, 16.7% (v/v) glycerol, 0.1% IGEPAL, 0.1 mg ml^−1 tRNA and 2.5% (v/v) RNasin (Promega). Excitation of the ligand was performed with linearly polarized light at 485 nm and emission was measured at 520 nm in parallel and perpendicular planes to the emission plane at 25 °C using a FLUOstar-Omega microplate reader (BMG-Labtech). All measurements were performed in at least duplicates, results were plotted against the protein concentration and Kd values were determined via curve fitting as described in ref. [70]."}, "[4]": {"system": "Seb1 SUMO-RRM388-540 S492A", "experiment": "FA, SUMO-RRM S492A binding to RNA", "conditions": "SUMO-RRM388-540 S492A vs WT (Fig. 3e)", "protocol": "as §1, §2"}},
  "data": [
    {"sequence": "AUUAGUAAAA (chemistry not fully specified) [RNA: AUUAGUAAAA]", "values": [
      {"measurement": "effect on affinity to RNA, F487A", "setting": "[1]", "result": "severely reduces the affinity to RNA"},
      {"measurement": "effect on RNA binding, R472E", "setting": "[2]", "result": "completely abolishes RNA binding"},
      {"measurement": "effect on RNA binding, F445A", "setting": "[3]; listed as FAM-labelled 10 nt-RNA", "result": "completely abolishes RNA binding"},
      {"measurement": "effect on RNA binding, F445A", "setting": "[3]; listed as RNA", "result": "abolishes the interaction completely"},
      {"measurement": "Kd", "setting": "[3]; fluorescence anisotropy, SUMO-RRM F445A, 40 nM FAM-RNA, Tris-HCl pH 8.0, 100 mM NaCl, 2 mM MgCl2, 25 °C, three technical replicates", "result": "> 1000", "unit": "µM"},
      {"measurement": "effect on RNA binding, S492A", "setting": "[4]", "result": "only a mild effect on binding"}
    ]}
  ]
}
